Data on 1 compound can be found in patent US20140100165A1, “PREVENTION OF KIDNEY INJURY OR DISEASE” (University of Florida Research Foundation, priority 2012, published 2014).

Each structure is given as a SMILES string. Like-named read-outs stand apart in the source and are kept apart here.

Data set [1] has as its system complete warm ischemia in the kidney. The conditions noted are these: pigs; 200 μg/kg, 10 ml i.v. bolus during 1 minute, seven doses; cited from earlier work.
Data set [2] concerns Acute Kidney Injury (AKI) in patients undergoing cardiac surgery on cardiopulmonary bypass. The class given is in vivo. The note with it: for kidney function as measured by estimated GFR: seven day post-operative period. An excerpt: The CS007 trial was designed to study both short and long term efficacy signals (FIG. 5).
Primary Aims • Safety: Safety and tolerability vs. placebo • Efficacy: Max post-operative change in absolute values of SCr compared to baseline within the first 7 days after surgery or until discharge from hospital, whichever comes first vs. placebo.
Secondary aims • Composite: • Assess the proportion of patients reaching the composite endpoint of death, need for RRT or a 25% reduction in renal function over a 90 day post-operative period vs. placebo. • AKIN: Assess post-operative incidence of AKI within 48 hours post-surgery • RIFLE: Assess post-operative incidence of AKI within first 7 days post-surgery. • SCr: Changes between surgery and postoperative day 7. • GFR: Changes at day 90 compared to baseline. • eGFR: Changes between surgery and postoperative day 7
Each dosage was provided over a period of 10 minutes. As used throughout this disclosure and unless specified otherwise, “μg/kg” refers to […] AP214 per kg bodyweight of the patient being treated.
Moreover, in the same double-blind study described in this Example, patients undergoing cardiac surgery on cardiopulmonary bypass (CPB) were randomized to placebo (PBO; n=26), AP214 given at either 600 μg/kg (n=25), or 800 μg/kg (n=26), divided into 3 bolus infusions at the predetermined intervals as described above. AKI was determined according to AKIN and RIFLE scores.

A short description of data set [3]: Example 3: evaluation of rate of infusion of AP214 (adverse events, tolerability). The format is in vivo, human. The method, then:
To establish a suitable rate of infusion of AP214 a set of patient trials were performed.
AP214 isotonic solution single ascending doses (25, 50 and 100 μg/kg) for intravenous infusion administered over 10 minutes, or placebo (saline infusion).
AP214 isotonic solution single doses (100 μg/kg over 1 minute; 100 μg/kg over 30 seconds; 200 μg/kg over 30 seconds) for intravenous infusion.

For data set [4], the system named is Acute Kidney Injury (AKI) in patients undergoing cardiac surgery. As to the kind of experiment: Example 1: prevention of AKI by different dosage regimes of AP214 in patients undergoing cardiac surgery. The format is in vivo, human. The procedure:
Each of 12 patients undergoing cardiac surgery (the AP214 group) was dosed with 600 μg/kg AP214: 200 μg/kg at skin incision, 200 μg/kg at cross clamp release, and 200 μg/kg 6-hour after cross clamp release. Each dosage was provided over a period of 10 minutes. The placebo group included 13 patients undergoing cardiac surgery without AP214 infusion.
Objectives • trial objective was to assess the effect of AP214 on • 1) changes in serum creatinine, cystatin-C and carbamade, • 2) on eGFR and • 3) on the development of post-surgical acute kidney injury (AKI) • AKI also assessed (post-hoc analysis) by AKIN and RIFLE
Three different definitions of AKI were tested: • 1) 3 patients in the AP214 group developed AKI, in contrast to 7 patients in the placebo group who developed AKI. AKI is defined as in the CS005 protocol: • An absolute increase in serum creatinine of more than or equal to 26.4 μmol/l (0.3 mg/dl) or • A percentage increase in serum creatinine of more than or equal to 50% (1.5-fold from baseline) from Day 0-14 and/or • Urine output less than 0.5 mL/kg per hour for more than 6 hours. • 2) AKI according to the AKIN score as presented in FIG. 3a, and • 3) AKI according to the RIFLE score as presented in FIG. 3b.

The mark [5] stands for this setting: 600 μg/kg bodyweight (3×200 μg/kg) i.v. over 10 minutes each, vs placebo.
The mark [6] stands for this setting: 600 μg/kg bodyweight, vs placebo.

With `CSCC[C@H](NC(=O)[C@H](CO)NC(=O)[C@H](Cc1ccc(O)cc1)NC(=O)[C@H](CO)NC(=O)[C@H](CCCCN)NC(=O)[C@H](CCCCN)NC(=O)[C@H](CCCCN)NC(=O)[C@H](CCCCN)NC(=O)[C@H](CCCCN)NC(=O)[C@H](CCCCN)NC(C)=O)C(=O)N[C@@H](CCC(=O)O)C(=O)N[C@@H](Cc1c[nH]cn1)C(=O)N[C@@H](Cc1ccccc1)C(=O)N[C@@H](CCCNC(=N)N)C(=O)N[C@@H](Cc1c[nH]c2ccccc12)C(=O)NCC(=O)N[C@@H](CCCCN)C(=O)N1CCC[C@H]1C(=O)N[C@H](C(N)=O)C(C)C` [AP214, Acetyl-Lysyl-L-lysyl-L-lysyl-L-lysyl-L-lysyl-L-lysyl-L-seryl-L-tyrosyl-L-seryl-L-methionyl-Lglutamyl-L-histidyl-L-phenylalanyl-L-arginyl-L-tryptophanyl-glycyl-L-lysyl-L-prolyl-L-valine amide], the renoprotective effect result in data set [1] is recorded as “provides a renoprotective effect”. Moreover, in data set [2] (600 μg/kg), the “population distribution of extreme serum creatinine values (highest quartile)” value is recorded as “showed a reduction in serum creatinine values at the highest quartile” and the “kidney function as measured by estimated GFR” value is listed as “increased kidney function”. In addition, in data set [2] (800 μg/kg), the “population distribution of extreme serum creatinine values (highest quartile)” value is “showed a reduction in serum creatinine values at the highest quartile” and the “kidney function as measured by estimated GFR” value was “increased kidney function”. Also, the “degree of acute kidney injury compared to placebo” value in data set [2] (800 μg/kg, Day 0-7) was “displayed lesser degrees of acute kidney injury”. In data set [2] (800 μg/kg, combined CABG and valve surgery, multiple valve surgery, chronic kidney disease and CABG (or valve surgery)), the “incidence of AKI compared with PBO, by surgery type” value is reported as “numerically lower incidence of AKI”. Further, in data set [3] (100 μg/kg over 10 minutes i.v. (slower infusion rate)), the adverse events entry is on record as “did not show these adverse effects”. Moreover, the “adverse events versus 100 μg/kg over 30 sec and 1 minute” value in data set [3] (200 μg/kg over 30 seconds i.v.) is listed as “more adverse events”. The compound also had a subjects with erythema in data set [3] (Group 2 (n=6), short infusion times) of 6 subjects. The adverse events result in data set [3] (Group 2 (n=6): 100 μg/kg over 1 minute, 100 μg/kg over 30 seconds, 200 μg/kg over 30 seconds, i.v.) was “A large number of adverse events were reported”. Also, the “prevention of AKI as compared to placebo” value in data set [4] (150 μg/kg bodyweight (3×50 μg/kg), same dosing scheme) is given as “showed no prevention of AKI”. Also, the “patients who developed AKI (AKI as defined in the CS005 protocol)” value in data set [4] (600 μg/kg (3×200 μg/kg), AP214 group of 12 patients, 7 of 13 in placebo group) is listed as 3 patients. Further, in data set [4] (600 μg/kg bodyweight (3×200 μg/kg)), the “development of AKI according to the RIFLE and AKIN scores” value was “demonstrated prevention in the development of AKI”. Moreover, in data set [4] (setting [5]), the “decrease in eGFR” value was “prevented a decrease in eGFR” and the “increase in serum creatinine” value was “prevented”. For the same compound, in data set [4] (setting [6]), the increase in carbamide result is recorded as “prevented” and the “increase in cystatin C” value is listed as “prevented an increase in cystatin C”.
